Source: patent US10413520B2, “Oral pharmacological composition including 5-{4-(amino sulfonyl)phenyl}-2,2-dimethyl-4-(3-fluorophenyl)-3(2H)-furanone having crystalline structure with excellent stability” (CRYSTALGENOMICS, INC., priority 2014, dated 2019)

Columns and labels:
Type in all cases: physicochemical
[1] = Humidity stability of crystalline form A in capsules; conditions: PTP, 25 ± 2° C., 90 ± 5% RH
Protocol: The crystalline form A was filled in a hard capsule (2 mg per capsule) and stored under the severe humidity conditions shown in Table 10. Thereafter, the appearance of the crystalline form A, the retention time of the major peak, the amounts (%) of related substances, and the compound content were analyzed.

[2] = Light stability of crystalline form A in capsules; conditions: PTP, light stress (white and UV florescent lamp)
Protocol: The crystalline form A was filled in a hard capsule (2 mg per capsule) and stored under the light stress conditions shown in Table 11. Thereafter, the appearance of the crystalline form A, the retention time of the major peak, the amounts (%) of related substances, and the compound content were analyzed.

[3] = Temperature stability of crystalline form A in capsules; conditions: PTP, 60 ± 5% RH
Protocol: The retention time of the major peak, the amounts of related substances, and the compound content were analyzed by HPLC under the following conditions.
<HPLC Conditions for Analysis of Related Substances>
Column: Hypurity C18, 250×4.6 mm, […] or its equivalent column
Detector: UV absorption spectrometer (measured at 241 nm)
Column temperature: 30° C.
Mobile phase: A—acetonitrile, B—0.1% v/v trifluoroacetic acid (TFA) in water
<HPLC Conditions for Analysis of the Compound Content>
Detector: UV absorption spectrometer (measured at 325 nm)
Mobile phase: A—acetonitrile, B—water, A:B=60:40, v/v %
Diluent: water:acetonitrile=50:50, v/v %

[4] = Particle size analysis by laser diffraction; conditions: dry module, 2 bar
Protocol: The particle sizes of the crystalline form of Comparative Examples 1 and 2 and Example 39 were analyzed using a laser diffraction-based particle size analyzer (Mastersizer 2000®, Malvern). After each sample was fed into a dry module (Scirocco 2000®, Malvern) at a pressure of 2 bar, the 50% volume particle diameter (d(0.5)) and 90% volume particle diameter (d(0.9)) of the particles were measured.

[5] = Dissolution rates of crystalline form with different particle sizes; conditions: 2 mg per hard capsule, 900 ml pH 1.2 and pH 6.8 solutions, 100 rpm, 37±0.5° C., 3 hr
Protocol: In this example, the dissolution rates of the crystalline form with different particle sizes were examined. The particles of Comparative Examples 1 and 2 and Example 39 were filled in different hard capsules (2 mg per capsule) and were then eluted in 900 ml of a pH 1.2 solution and 900 ml of a pH 6.8 solution at a revolution number of 100 rpm and a temperature of 37±0.5° C. for 3 hr. The eluted particles were analyzed under the same HPLC conditions as described in Test Example 1.

[6] = Room temperature storage of anhydrous form; conditions: stored at room temperature for a long period
Protocol: Then, about 18 g of the compound was dissolved in 200 mL of acetone. The completely dissolved solution was vacuum dried at 40° C. using a rotary evaporator (Buchi Rota Vapour R200). The compound thus obtained was a sponge-like solid. When the compound was stored at room temperature for a long period, the structure of the crystalline form A was gradually formed, and related substances were created due to hygroscopic property.

For `CC1(C)OC(c2ccc(S(N)(=O)=O)cc2)=C(c2cccc(F)c2)C1=O` [Example 39], the “Amounts of related substances (each)” value ([1]; 1 week) was 0.1%, the “Amounts of related substances (total)” value ([1]; 1 week) was 0.1%, and the Appearance ([1]; 1 week) was “Unchanged”. The Content ([1]; 1 week) was 103.1%, the “Peak retention time confirmation” value ([1]; 1 week) was “The same” and the “Amounts of related substances (each)” value ([1]; 2 weeks) was 0.1%, 0.1%. The “Amounts of related substances (total)” value ([1]; 2 weeks) was 0.1%, 0.1%, the Appearance ([1]; 2 weeks) was “Unchanged” and the Content ([1]; 2 weeks) was 103.1%. For the same compound, the “Peak retention time confirmation” value ([1]; 2 weeks) was “The same”, the “Amounts of related substances (each)” value ([1]; 4 weeks) was 0.1%, and the “Amounts of related substances (total)” value ([1]; 4 weeks) was 0.1%. For the same compound, the Appearance ([1]; 4 weeks) was “Unchanged”, the Content ([1]; 4 weeks) was 101.2% and the “Peak retention time confirmation” value ([1]; 4 weeks) was “The same”. The “Amounts of related substances (each)” value ([2]; 1 week) was 1.7%, the “Amounts of related substances (total)” value ([2]; 1 week) was 3.0% and the Appearance ([2]; 1 week) was “Unchanged”. For the same compound, the Content ([2]; 1 week) was 103.4%, the “Peak retention time confirmation” value ([2]; 1 week) was “The same” and the “Amounts of related substances (each)” value ([2]; 2 weeks) was 2.1%. The “Amounts of related substances (total)” value ([2]; 2 weeks) was 3.7%, the Appearance ([2]; 2 weeks) was “Unchanged” and the Content ([2]; 2 weeks) was 103.1%. The “Peak retention time confirmation” value ([2]; 2 weeks) was “The same”, the “Amounts of related substances (each)” value ([2]; 4 weeks) was 2.3% and the “Amounts of related substances (total)” value ([2]; 4 weeks) was 4.1%. For the same compound, the Appearance ([2]; 4 weeks) was “Unchanged”, the Content ([2]; 4 weeks) was 99.1% and the “Peak retention time confirmation” value ([2]; 4 weeks) was “The same”. The “Amounts of related substances (each)” value ([3]; 60 ± 2° C., 24 hr) was 0.0%,, the “Amounts of related substances (total)” value ([3]; 60 ± 2° C., 24 hr) was 0.0% and the Appearance ([3]; 60 ± 2° C., 24 hr) was “Unchanged”. The Content ([3]; 60 ± 2° C., 24 hr) was 103.0%, the “Peak retention time confirmation” value ([3]; 60 ± 2° C., 24 hr) was “The same” and the “Amounts of related substances (each)” value ([3]; 80 ± 2° C., 24 hr) was 0.0%,. The “Amounts of related substances (total)” value ([3]; 80 ± 2° C., 24 hr) was 0.0%, the Appearance ([3]; 80 ± 2° C., 24 hr) was “Unchanged” and the Content ([3]; 80 ± 2° C., 24 hr) was 101.5%. The “Peak retention time confirmation” value ([3]; 80 ± 2° C., 24 hr) was “The same”, the “Amounts of related substances (each)” value ([3]; 90 ± 2° C., 24 hr) was 0.0%, and the “Amounts of related substances (total)” value ([3]; 90 ± 2° C., 24 hr) was 0.0%. The Appearance ([3]; 90 ± 2° C., 24 hr) was “Unchanged”, the Content ([3]; 90 ± 2° C., 24 hr) was 101.8% and the “Peak retention time confirmation” value ([3]; 90 ± 2° C., 24 hr) was “The same”. The “Amounts of related substances (each)” value ([3]; 90 ± 2° C., 72 hr) was 0.1%,, the “Amounts of related substances (total)” value ([3]; 90 ± 2° C., 72 hr) was 0.1% and the Appearance ([3]; 90 ± 2° C., 72 hr) was “Unchanged”. The Content ([3]; 90 ± 2° C., 72 hr) was 101.1%, the “Peak retention time confirmation” value ([3]; 90 ± 2° C., 72 hr) was “The same” and the “Particle size d(0.1)” value [4] was 1.75 μm. The “Particle size d(0.5), 50% volume particle diameter” value [4] was 5.98 μm, the “Particle size d(0.9), 90% volume particle diameter” value [4] was 15.23 μm and the Dissolution rate [5] was “higher dissolution rates than the particles of Comparative Examples 1 and 2”.

With `CC1(C)OC(c2ccc(S(N)(=O)=O)cc2)=C(c2cccc(F)c2)C1=O` [Preparation Example 2] the Physicochemical stability [6] was “physicochemically unstable”.
